The target of this assay is BtRDL (Bombus terrestris RDL GABA-gated chloride channel) (Bombus terrestris audax, UniProt A0A8F2J2P3). Nature of the assay: Two-electrode voltage-clamp recording of BtRDL expressed in Xenopus oocytes. Type of assay: cell-based. To be noted: for IC50: IC50 for block of GABA responses. In general terms: Two-electrode voltage clamp holds a large cell at a set potential and records current.

Data on three compounds can be found in article PMC8263253, “Agonist and antagonist properties of an insect GABA-gated chloride channel (RDL) are influenced by heterologous expression conditions” (PLoS ONE, 2021).

Several values for one entry are separate records, joined by “and”; a condition that tells them apart may be missing. Identical values can stand only once.

BtRDL (Bombus terrestris RDL GABA-gated chloride channel), sequence (A0A8F2J2P3 entry or part of it): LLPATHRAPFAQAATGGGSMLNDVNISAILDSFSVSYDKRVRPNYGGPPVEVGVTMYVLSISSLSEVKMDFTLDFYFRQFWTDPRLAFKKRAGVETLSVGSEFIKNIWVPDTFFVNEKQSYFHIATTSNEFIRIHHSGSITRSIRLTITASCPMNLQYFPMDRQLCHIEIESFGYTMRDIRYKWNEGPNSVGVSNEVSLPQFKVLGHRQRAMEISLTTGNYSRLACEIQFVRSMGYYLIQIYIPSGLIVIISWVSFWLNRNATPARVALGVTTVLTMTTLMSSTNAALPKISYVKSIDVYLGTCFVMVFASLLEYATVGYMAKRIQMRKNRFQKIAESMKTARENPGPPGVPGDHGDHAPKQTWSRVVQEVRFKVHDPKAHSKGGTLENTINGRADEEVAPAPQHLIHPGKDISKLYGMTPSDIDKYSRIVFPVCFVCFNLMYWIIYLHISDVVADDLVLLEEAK
Description: For convenience, these amounts of cRNA are referred to subsequently as 1 ng and 10 ng.
Xenopus were anaesthetised by immersion in 0.2% MS222 for 15 minutes (or until complete anaesthesia was confirmed by absence of leg-withdrawal and righting reflex), followed by cranial concussion, decapitation and pithing. Xenopus oocytes were isolated, maintained and injected with cRNA, as described previously [24]. […] Application of compounds was controlled by LabChart software (AD Instruments) using a BPS-8 solenoid valve solution exchange system (ALA Scientific Inc). Typically, agonists were applied for 5 s or until a plateau in the response was observed. Antagonists were pre-applied for 30 s and then co-applied with agonist for 5s or until a plateau in the response. was observed.

For `CC(C)c1cccc(C(C)C)c1O` [Propofol, propofol], the EC50 by setting is: (propofol apparent affinity (agonist activation), BtRDL with high apparent affinity for GABA (10 ng cRNA +3'UTR, three-days)) 82.9 ± 6.4 µM; (propofol apparent affinity (agonist activation), BtRDL with low apparent affinity for GABA (1 ng cRNA +3'UTR, one-day)) 198 ± 19.1 µM.
Take `C=C(C)[C@@H]1[C@H]2OC(=O)[C@@H]1[C@]1(O)C[C@H]3O[C@]34C(=O)O[C@H]2[C@]14C` [picrotoxinin]: the IC50 by setting is: (BtRDL with high apparent affinity for GABA (10 ng cRNA, pGEMHE NheI, three-days), EC50 concentration of GABA 1 μM) 14 ± 1.6 µM; (BtRDL with low apparent affinity for GABA (1 ng cRNA, pGEMHE XbaI, three-days), EC50 concentration of GABA 30 μM) 1.7 ± 0.3 µM.
`NCCCC(=O)O` [GABA, γ-aminobutyric acid]: the “maximum current (Imax) to GABA” value reads like this: (1 ng BtRDL cRNA lacking 3'UTR, 1–3 days post-injection) 0.67 ± 0.04 μA; (BtRDL 1 ng cRNA (+3'UTR) co-expressed with DmNACHO) 3.4 ± 0.6 μA. Further, the EC50 (GABA EC50, pGEMHE-BtRDL digested with NheI (3'UTR retained), 1 ng cRNA, three-days post-injection) was found to be 4 ± 1.1 µM; it took 27.6 ± 1.6 µM to reach a half-maximal effect (GABA EC50, pGEMHE-BtRDL digested with XbaI (3'UTR removed), 1 ng cRNA, three-days post-injection) (EC50); the EC50 (GABA EC50, pSP64GL-BtRDL cRNA containing 3'UTR, 1 ng, BtRDL expressed alone, three-days post-injection) was 3.7 ± 0.4 µM; the EC50 (GABA EC50, pSP64GL-BtRDL cRNA lacking 3'UTR, 1 ng, three-days post-injection) worked out at 31.4 ± 2.1 µM; the EC50 (GABA apparent affinity EC50, BtRDL 1 ng cRNA (+3'UTR) + 10 ng cRNA CeRIC-3, Day 1) is 10.6 ± 1.1 µM; the EC50 (GABA apparent affinity EC50, BtRDL 1 ng cRNA (+3'UTR) + 10 ng cRNA CeRIC-3, Day 2) was determined as 5 ± 0.9 µM. Also, the EC50 reads like this: (GABA apparent affinity EC50, BtRDL 1 ng cRNA (+3'UTR) + 10 ng cRNA CeRIC-3, Day 3) 4.2 ± 1 µM; (GABA apparent affinity EC50, BtRDL 1 ng cRNA (+3'UTR) + 10 ng cRNA DmNACHO, Day 1) 21 ± 1.1 µM; (GABA apparent affinity EC50, BtRDL 1 ng cRNA (+3'UTR) + 10 ng cRNA DmNACHO, Day 2) 14.8 ± 1.1 µM; (GABA apparent affinity EC50, BtRDL (+3'UTR), 1 ng cRNA, Day 2 post-injection) 4.4 ± 0.7 µM; (GABA apparent affinity EC50, BtRDL (+3'UTR), 1 ng cRNA, Day 3 post-injection) 3.9 ± 0.6 µM; (GABA apparent affinity EC50, BtRDL (+3'UTR), 10 ng cRNA, Day 1 post-injection) 10.8 ± 1.2 µM. For the same compound, the EC50 (GABA apparent affinity EC50, BtRDL (+3'UTR), 10 ng cRNA, Day 2 post-injection) was determined as 2 ± 0.7 µM; the EC50 (GABA apparent affinity EC50, BtRDL (+3'UTR), 10 ng cRNA, Day 3 post-injection) was found to be 1.8 ± 0.4 µM; the half-maximal effective concentration (EC50) (GABA apparent affinity EC50, BtRDL (-3'UTR), 1 ng cRNA, Day 1 post-injection) turned out to be 29.7 ± 1.1 µM; the EC50 (GABA apparent affinity EC50, BtRDL (-3'UTR), 1 ng cRNA, Day 2 post-injection) turned out to be 28.3 ± 1.1 µM; the EC50 (GABA apparent affinity EC50, BtRDL (-3'UTR), 1 ng cRNA, Day 3 post-injection) came out at 29.4 ± 1 µM; the EC50 (GABA apparent affinity EC50, BtRDL (-3'UTR), 10 ng cRNA, Day 1 post-injection) worked out at 27.3 ± 1.1 µM. Besides, the EC50 runs as follows: (GABA apparent affinity EC50, BtRDL (-3'UTR), 10 ng cRNA, Day 2 post-injection) 10.8 ± 1 µM; (GABA apparent affinity EC50, BtRDL (-3'UTR), 10 ng cRNA, Day 3 post-injection) 12.5 ± 1 µM; (GABA apparent affinity EC50, BtRDL alone, 1 ng cRNA (+3'UTR), Day 2) 4.6 ± 0.9 µM; (apparent affinity for GABA, BtRDL populations with intermediate apparent affinities (summary in discussion)) ~4 µM and ~12 µM; (apparent affinity for GABA, BtRDL receptors with high apparent affinity (summary in discussion)) ~30 µM; (apparent affinity for GABA, BtRDL receptors with low apparent affinity (summary in discussion)) ~2 µM.

By EC50 is commonly meant the concentration giving half of the maximal effect. As usually defined, the IC50 is the concentration that inhibits the measured activity by half.
